According to patent publication US12371419B2, “Aminopyrimidine/pyrazine derivatives as CTPS1 inhibitors” (Step Pharma S.A.S., priority 2018, dated 2025):

test system: Human CTPS1 versus CTPS2; assay: RapidFire/MS-based enzyme selectivity assay, human CTPS1 versus CTPS2; type: biochemical; settings: calculated from RF/MS IC50 values for human CTPS1 and CTPS2
Procedure: Human CTPS1 versus CTPS2 Selectivity Assessment by RapidFire/MS Analysis.
The enzyme inhibitory activities against each target isoform of interest may be determined for the compounds of the invention using an optimised RapidFire high-throughput mass spectrometry (RF/MS) assay format. RF/MS assays for both human CTPS1 and CTPS2 may be performed in assay buffer consisting of 50 mM HEPES (Merck), 20 mM MgCl2, 5 mM KCl, 1 mM DTT, 0.01% Tween-20, pH to 8.0 accordingly. Human full-length active C-terminal FLAG-His-tag CTPS1 (UniProtKB-P17812, CTPS[1-591]-[…]) may be obtained from Proteros biostructures GmbH. Human full length active C-terminal FLAG-His-Avi tagged CTPS2 (UniProtKB-Q9NRF8, CTPS2 [1-586]-[…]) may be obtained from Harker Bio.
Human CTPS (1 or 2) protein may be prepared in 1× assay buffer to the final working protein concentration required for the reaction. A 2 uL volume per well of 2×CTPS (1 or 2) protein may be mixed with 40 nL of compound using acoustic (ECHO) delivery and incubated for 10 minutes at 25° C. Each isoform enzymatic reaction may be subsequently initiated by addition of 2 uL per well of a 2× substrate mix in assay buffer. For hCTPS1: ATP (0.3 mM), UTP (0.2 mM), GTP (0.07 mM) and L-glutamine (0.1 mM). For hCTPS2: ATP (0.1 mM), UTP (0.04 mM), GTP (0.03 mM) and L-glutamine (0.1 mM). Each mixture may be incubated for an appropriate amount of time per isoform within the determined linear phase of the reaction at 25° C. A 60 uL volume of stop solution (1% formic acid with 0.5 uM ^13C9-^15N3-CTP in H20) may be added and the plate immediately heat-sealed and centrifuged for 10 minutes at 4,000 rpm. Following centrifugation, plates may be loaded onto the Agilent RapidFire microfluidic solid phase extraction system coupled to an API4000 triple quadrupole mass spectrometer (RF/MS) for analysis.
In all cases, the enzyme converts UTP to CTP. Highly specific and sensitive multiple reaction monitoring (MRM) MS methods may be optimised for the detection of the enzymatic reaction product, CTP, and the stable isotope labelled product standard ^13C9-^15N3-CTP. Readout for data analysis may be calculated as the ratio between the peak area of the product CTP and the internal standard ^13C9-^15N3-CTP. For data reporting, the following equation may be used: […]
For each screening plate, the means of the negative (DMSO) and positive control values were used for the calculation of the respective assay window (S/B) and Z′ values. The median of the respective control values was used for calculation of percent inhibition according to the following equation: […]
Percentage inhibition was then plotted against compound concentration, and the 50% inhibitory concentration (IC50) was determined from the resultant concentration-response curve.
Fold selectivity between CTPS1 and CTPS2 was subsequently calculated according to the following equation: […]

SMILES | Selectivity (fold selectivity between CTPS1 and CTPS2)
CCOc1cncc(-c2ccc(NC(=O)C3(c4ccnc(NS(=O)(=O)C5CC5)n4)CCOCC3)nc2)n1 [P115, 4-(2-(Cyclopropanesulfonamido)pyrimidin-4-yl)-N-(5-(6-ethoxypyrazin-2-yl)pyridin-2-yl)tetrahydro-2H-pyran-4-carboxamide] | +++ (>60 fold (+++))
CCOc1cncc(-c2ccc(NC(=O)C3(c4ccnc(NS(=O)(=O)C5CC5)n4)CCCC3)nc2)n1 [P136, 1-(2-(cyclopropanesulfonamido)pyrimidin-4-yl)-N-(5-(6-ethoxypyrazin-2-yl)pyridin-2-yl)cyclopentane-1-carboxamide] | +++ (>60 fold (+++))
CCOc1cncc(-c2ccc(NC(=O)C3(c4ccnc(NS(=O)(=O)C5CC5)n4)CCOCC3)c(F)c2)n1 [P143, 4-(2-(cyclopropanesulfonamido)pyrimidin-4-yl)-N-(4-(6-ethoxypyrazin-2-yl)2-fluorophenyl)tetrahydro-2H-pyran-4-carboxamide] | +++ (>60 fold (+++))
CCOc1cncc(-c2ccc(NC(=O)C(CCOC)c3ccnc(NS(=O)(=O)C4CC4)n3)nc2)n1 (stereo not drawn) [P145, 2-(2-(cyclopropanesulfonamido)pyrimidin-4-yl)-N-(5-(6-ethoxypyrazin-2-yl)pyridin-2-yl)-4-methoxybutanamide] | +++ (>60 fold (+++))
CCOc1cncc(-c2ccc(NC(=O)C3(c4cncc(NS(=O)(=O)C5CC5)n4)CCOCC3)nc2)n1 [P197] | +++ (>60 fold (+++))

Second part, the compound after the results:

Selectivity (fold selectivity between CTPS1 and CTPS2) | SMILES
+ (2-30 fold (+)) | CCOc1cncc(-c2ccc(NC(=O)C(F)(CC)c3ccnc(NS(=O)(=O)C4CC4)n3)nc2)n1 (single isomer, unassigned) [P113, 2-(2-(Cyclopropanesulfonamido)pyrimidin-4-yl)-N-(5-(6-ethoxypyrazin-2-yl)pyridin-2-yl)-2-fluorobutanamide]
+++ (>60 fold (+++)) | CCOc1cncc(-c2ccc(NC(=O)C(F)(CC)c3ccnc(NS(=O)(=O)C4CC4)n3)nc2)n1 (single isomer, unassigned) [P114, 2-(2-(Cyclopropanesulfonamido)pyrimidin-4-yl)-N-(5-(6-ethoxypyrazin-2-yl)pyridin-2-yl)-2-fluorobutanamide]
+++ (>60 fold (+++)) | CCOc1cncc(-c2ccc(NC(=O)C(F)(CC)c3cncc(NS(=O)(=O)C4CC4)n3)nc2)n1 (single isomer, unassigned) [P206, 2-(6-(cyclopropanesulfonamido)pyrazin-2-yl)-N-(5-(6-ethoxypyrazin-2-yl)pyridin-2-yl)-2-fluorobutanamide]
+ (2-30 fold (+)) | CCOc1cncc(-c2ccc(NC(=O)C(F)(CC)c3cncc(NS(=O)(=O)C4CC4)n3)nc2)n1 (single isomer, unassigned) [P207, 2-(6-(cyclopropanesulfonamido)pyrazin-2-yl)-N-(5-(6-ethoxypyrazin-2-yl)pyridin-2-yl)-2-fluorobutanamide]
